Where “and” joins values, the source holds several entries; their conditions need not be identical. Identical values can stand only once. Inconclusive results and toxic doses are left out.
Test system: P388 leukemia ip, CD2F1 mice, survival T/C
Assay: NCI In Vivo Anticancer Drug Screen. Data for tumor model P388 Leukemia (intraperitoneal) in CD2F1 (CDF1) mice
Conditions: endpoint: median survival time, higher = longer survival
Summary of the method: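 Mice carrying the transplanted tumor received test compound or vehicle. Survival was recorded in each group, and the value is the treated-group measurement divided by that of the vehicle-treated control group.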

[1] = dose: 60.0 mg/kg/injection, schedule: Q01DX005 (ip), vehicle: saline with Tween-80
[2] = dose: 120.0 mg/kg/injection, schedule: Q01DX005 (ip), vehicle: saline with Tween-80
[3] = dose: 240.0 mg/kg/injection, schedule: Q01DX005 (ip), vehicle: saline with Tween-80
[4] = dose: 100.0 mg/kg/injection, schedule: Q01DX001 (ip), vehicle: saline with Tween-80
[5] = dose: 200.0 mg/kg/injection, schedule: Q01DX001 (ip), vehicle: saline with Tween-80
[6] = dose: 100.0 mg/kg/injection, schedule: Q01DX001 (ip), vehicle: Klucel (hydroxypropylcellulose) (HPC)
[7] = dose: 200.0 mg/kg/injection, schedule: Q01DX001 (ip), vehicle: Klucel (hydroxypropylcellulose) (HPC)
[8] = dose: 50.0 mg/kg/injection, schedule: Q01DX009 (ip), vehicle: Klucel (hydroxypropylcellulose) (HPC)
[9] = dose: 100.0 mg/kg/injection, schedule: Q01DX009 (ip), vehicle: Klucel (hydroxypropylcellulose) (HPC)
[10] = dose: 200.0 mg/kg/injection, schedule: Q01DX009 (ip), vehicle: Klucel (hydroxypropylcellulose) (HPC)
[11] = dose: 30.0 mg/kg/injection, schedule: Q01DX005 (ip), vehicle: saline with Tween-80
[12] = dose: 50.0 mg/kg/injection, schedule: Q01DX009 (ip), vehicle: saline with Tween-80
[13] = dose: 100.0 mg/kg/injection, schedule: Q01DX009 (ip), vehicle: saline with Tween-80

Q: What does the source list for NC(=O)c1cc([N+](=O)[O-])ccc1N=NN(CCCl)Cc1ccccc1?
A: T/C (dose: 100.0 mg/kg/injection, schedule: Q04DX003 (ip), vehicle: Klucel (hydroxypropylcellulose) (HPC)): 111 % of control; T/C (dose: 200.0 mg/kg/injection, schedule: Q04DX003 (ip), vehicle: Klucel (hydroxypropylcellulose) (HPC)): 122 % of control; T/C (dose: 400.0 mg/kg/injection, schedule: Q04DX003 (ip), vehicle: Klucel (hydroxypropylcellulose) (HPC)): 162 % of control

Q: Which T/C [1] does the source give for CCOC(=O)C1(c2ccccc2)c2c(cnc3ccccc23)C(=O)N1C (configuration not stated) here?
A: 101 % of control

Q: And the T/C [2]?
A: 97 % of control

Q: And the T/C [3]?
A: 97 % of control

Q: Which T/C (dose: 12.5 mg/kg/injection, schedule: Q04DX002 (ip), vehicle: distilled water + Tween-80) does the source give for CN(C)c1ccc(Nc2c3ccccc3nc3ccccc23)cc1 here?
A: 113 % of control

Q: And the T/C (dose: 13.0 mg/kg/injection, schedule: Q04DX003 (ip), vehicle: saline with Tween-80)?
A: 100 % of control and 103 % of control

Q: And the T/C (dose: 21.6 mg/kg/injection, schedule: Q04DX003 (ip), vehicle: saline with Tween-80)?
A: 107 % of control and 111 % of control

Q: And the T/C (dose: 25.0 mg/kg/injection, schedule: Q04DX002 (ip), vehicle: distilled water + Tween-80)?
A: 150 % of control and 156 % of control

Q: What about the T/C (dose: 25.9 mg/kg/injection, schedule: Q04DX003 (ip), vehicle: saline) of the same molecule?
A: 109 % of control

Q: What about the T/C (dose: 36.0 mg/kg/injection, schedule: Q04DX003 (ip), vehicle: saline with Tween-80) of the same molecule?
A: 110 % of control and 111 % of control

Q: What about the T/C (dose: 50.0 mg/kg/injection, schedule: Q04DX002 (ip), vehicle: distilled water + Tween-80) of the same molecule?
A: 185 % of control and 196 % of control

Q: And the T/C (dose: 100.0 mg/kg/injection, schedule: Q04DX003 (ip), vehicle: saline with Tween-80)?
A: 157 % of control

Q: And the T/C (dose: 120.0 mg/kg/injection, schedule: Q04DX003 (ip), vehicle: saline)?
A: 179 % of control

Q: For CCOC(=O)Nc1cc(N(C)CC(O)c2ccccc2)c(N)c(N)n1 (configuration not stated), which T/C (dose: 50.0 mg/kg/injection, schedule: Q01DX001 (ip), vehicle: saline with Tween-80) is on record?
A: 104 % of control

Q: And the T/C [4]?
A: 94 % of control

Q: And the T/C [5]?
A: 94 % of control

Q: What does the source list for C=CCC1CCC/C1=N\O (configuration not stated)?
A: T/C [1]: 105 % of control; T/C [2]: 104 % of control; T/C [3]: 100 % of control

Q: Which T/C (dose: 25.0 mg/kg/injection, schedule: Q01DX005 (ip), vehicle: Klucel (hydroxypropylcellulose) (HPC)) does the source give for Cn1c([N+](=O)[O-])cnc1CSc1ccc(C#N)cc1 here?
A: 105 % of control

Q: What about the T/C (dose: 50.0 mg/kg/injection, schedule: Q01DX005 (ip), vehicle: Klucel (hydroxypropylcellulose) (HPC)) of the same molecule?
A: 104 % of control

Q: What about the T/C (dose: 100.0 mg/kg/injection, schedule: Q01DX005 (ip), vehicle: Klucel (hydroxypropylcellulose) (HPC)) of the same molecule?
A: 92 % of control

Q: What about the T/C (dose: 200.0 mg/kg/injection, schedule: Q01DX005 (ip), vehicle: Klucel (hydroxypropylcellulose) (HPC)) of the same molecule?
A: 114 % of control

Q: Which results are given for Cc1ccccc1N=Nc1ccc(N(CCCl)CCCl)cc1?
A: T/C (dose: 50.0 mg/kg/injection, schedule: Q01DX001 (ip), vehicle: Klucel (hydroxypropylcellulose) (HPC)): 100 % of control; T/C [6]: 115 % of control; T/C [7]: 100 % of control

Q: What does the source list for COC1CC(N=S(=O)(O)c2ccc(N)cc2)[N-]C(OC)N1.[Ag+] (configuration not stated)?
A: T/C [8]: 97 % of control; T/C [9]: 93 % of control; T/C [10]: 102 % of control

Q: O=C1OC2C(O)COC23OC(O)CCC13O (configuration not stated) was tested. Which T/C (dose: 15.0 mg/kg/injection, schedule: Q01DX005 (ip), vehicle: saline with Tween-80) did it give?
A: 100 % of control

Q: And the T/C [11]?
A: 102 % of control

Q: And the T/C [1]?
A: 102 % of control

Q: And the T/C (dose: 60.0 mg/kg/injection, schedule: Q01DX005 (ip), vehicle: saline)?
A: 104 % of control

Q: What about the T/C [2] of the same molecule?
A: 105 % of control

Q: What about the T/C (dose: 120.0 mg/kg/injection, schedule: Q01DX005 (ip), vehicle: saline) of the same molecule?
A: 102 % of control

Q: And the T/C [3]?
A: 105 % of control

Q: What about the T/C (dose: 240.0 mg/kg/injection, schedule: Q01DX005 (ip), vehicle: saline) of the same molecule?
A: 102 % of control

Q: Which T/C [6] does the source give for c1ccc(CN2CCC3(CC2)CO3)cc1 here?
A: 106 % of control

Q: What about the T/C [7] of the same molecule?
A: 100 % of control

Q: For COc1ccc(CC2c3cc(OC)c(OC)c(OC)c3CC[N+]2(C)C)cc1Oc1ccc(CC2c3cc4c(c(OC)c3CC[N+]2(C)C)OCO4)cc1 (configuration not stated), which T/C (dose: 1.56 mg/kg/injection, schedule: Q04DX003 (ip), vehicle: saline) is on record?
A: 99 % of control

Q: What about the T/C (dose: 3.13 mg/kg/injection, schedule: Q04DX003 (ip), vehicle: saline) of the same molecule?
A: 101 % of control

Q: How did the T/C [11] turn out when COc1cc(C2c3cc4c(cc3OC(=O)C2C(C)=O)OCO4)cc(OC)c1OC (configuration not stated) was run?
A: 89 % of control and 90 % of control

Q: And the T/C [1]?
A: 89 % of control (2×) and 93 % of control

Q: What about the T/C [2] of the same molecule?
A: 107 % of control and 110 % of control

Q: What does the source list for O=C(COc1cc(Cl)c(Cl)cc1Cl)OCCOc1cc(Cl)c(Cl)cc1Cl?
A: T/C (dose: 1.0 mg/kg/injection, schedule: Q01DX009 (ip), vehicle: saline with Tween-80): 100 % of control; T/C (dose: 2.0 mg/kg/injection, schedule: Q01DX009 (ip), vehicle: saline with Tween-80): 100 % of control; T/C (dose: 4.0 mg/kg/injection, schedule: Q01DX009 (ip), vehicle: saline with Tween-80): 95 % of control

Q: For N#CC1C(=O)NC(=O)C(C#N)C1c1c(Cl)cccc1Cl (configuration not stated), which T/C [8] is on record?
A: 101 % of control

Q: What about the T/C [9] of the same molecule?
A: 99 % of control

Q: And the T/C [10]?
A: 99 % of control

Q: How did the T/C [4] turn out when O=S1(=O)CC(Sc2ccccc2)C1 was run?
A: 102 % of control

Q: What about the T/C [5] of the same molecule?
A: 96 % of control

Q: What about the T/C (dose: 400.0 mg/kg/injection, schedule: Q01DX001 (ip), vehicle: saline with Tween-80) of the same molecule?
A: 109 % of control

Q: Which T/C [8] does the source give for FC(F)(F)C1=NNC(c2ccc3ccccc3c2)=NN1 here?
A: 95 % of control

Q: What about the T/C [9] of the same molecule?
A: 90 % of control

Q: What about the T/C [10] of the same molecule?
A: 92 % of control

Q: Which T/C (dose: 50.0 mg/kg/injection, schedule: Q01DX005 (ip), vehicle: saline) does the source give for C=CC1C(=O)N(C)[C@H](C(C)(C)C)N1C(=O)c1ccccc1 (some centres not stated) here?
A: 100 % of control

Q: And the T/C (dose: 100.0 mg/kg/injection, schedule: Q01DX005 (ip), vehicle: saline)?
A: 93 % of control

Q: And the T/C (dose: 200.0 mg/kg/injection, schedule: Q01DX005 (ip), vehicle: saline)?
A: 113 % of control

Q: Which results are given for CO/N=C/c1ccc([N+](=O)[O-])s1?
A: T/C (dose: 12.0 mg/kg/injection, schedule: Q01DX001 (ip), vehicle: other): 90 % of control; T/C (dose: 25.0 mg/kg/injection, schedule: Q01DX001 (ip), vehicle: other): 104 % of control; T/C (dose: 50.0 mg/kg/injection, schedule: Q01DX001 (ip), vehicle: other): 100 % of control

Q: Which results are given for CC(NNC(=S)N1CCCC1)c1ccc2ccccc2n1 (configuration not stated)?
A: T/C (dose: 50.0 mg/kg/injection, schedule: Q01DX005 (ip), vehicle: saline with Tween-80): 94 % of control; T/C (dose: 100.0 mg/kg/injection, schedule: Q01DX005 (ip), vehicle: saline with Tween-80): 94 % of control; T/C (dose: 200.0 mg/kg/injection, schedule: Q01DX005 (ip), vehicle: saline with Tween-80): 94 % of control

Q: With CCCCCCCCCCCC(=O)C(=O)c1ccc(O)cc1O as the molecule, how does the T/C [8] read?
A: 110 % of control

Q: What about the T/C [9] of the same molecule?
A: 107 % of control

Q: And the T/C [10]?
A: 109 % of control

Q: Which results are given for COc1cccc2c(NCCCCCCNc3c4ccccc4nc4c(OC)cccc34)c3ccccc3nc12?
A: T/C (dose: 0.62 mg/kg/injection, schedule: Q## X009 (ip), vehicle: lactic acid): 123 % of control; T/C (dose: 0.63 mg/kg/injection, schedule: Q01DX009 (ip), vehicle: other): 102 % of control; T/C (dose: 1.25 mg/kg/injection, schedule: Q01DX009 (ip), vehicle: other): 122 % of control; T/C (dose: 2.5 mg/kg/injection, schedule: Q## X009 (ip), vehicle: lactic acid): 160 % of control; T/C (dose: 5.0 mg/kg/injection, schedule: Q## X009 (ip), vehicle: lactic acid): 161 % of control; T/C (dose: 10.0 mg/kg/injection, schedule: Q## X009 (ip), vehicle: lactic acid): 119 % of control

Q: For NC1=C(O)C(=O)C(c2c[nH]c3ccc(OCc4ccccc4)cc23)O1 (configuration not stated), which T/C (dose: 7.5 mg/kg/injection, schedule: Q01DX005 (ip), vehicle: Klucel (hydroxypropylcellulose) (HPC)) is on record?
A: 93 % of control

Q: What about the T/C (dose: 15.0 mg/kg/injection, schedule: Q01DX005 (ip), vehicle: Klucel (hydroxypropylcellulose) (HPC)) of the same molecule?
A: 101 % of control

Q: And the T/C (dose: 30.0 mg/kg/injection, schedule: Q01DX005 (ip), vehicle: Klucel (hydroxypropylcellulose) (HPC))?
A: 102 % of control and 96 % of control

Q: How did the T/C (dose: 25.0 mg/kg/injection, schedule: Q01DX009 (ip), vehicle: saline with Tween-80) turn out when CSC1C(=O)Nc2ccc([N+](=O)[O-])cc21 (configuration not stated) was run?
A: 96 % of control

Q: And the T/C [12]?
A: 105 % of control

Q: What about the T/C [13] of the same molecule?
A: 113 % of control

Q: What does the source list for COC(=N)C(Cl)(Cl)Cl?
A: T/C (dose: 50.0 mg/kg/injection, schedule: Q01DX009 (ip), vehicle: saline): 97 % of control; T/C (dose: 100.0 mg/kg/injection, schedule: Q01DX009 (ip), vehicle: saline): 100 % of control; T/C (dose: 200.0 mg/kg/injection, schedule: Q01DX009 (ip), vehicle: saline): 95 % of control

Q: With OC(c1ccccc1)(C(F)(F)F)C(F)(F)F as the molecule, how does the T/C [12] read?
A: 110 % of control

Q: And the T/C [13]?
A: 92 % of control

— PubChem BioAssay AID330 (DTP/NCI, 2004)
